From ChEMBL document CHEMBL4616677, “Preclinical Lead Optimization of a 1,2,4-Triazole Based Tankyrase Inhibitor” (J Med Chem, 2020)
Activity calls are given as the source filed them. The rule behind the calls is not given here.

How the values were obtained:
[1] = Clearance in ICR mouse at 5 mg/kg, po by LC-MS/MS analysis; assay type: ADME, organism-based; conditions: in vivo
[2] = Apparent permeability across apical to basolateral side in human Caco2 cells at 10 uM measured after 2 hrs by lucifer yellow based LC-MS/MS analysis; assay type: ADME, cell-based; conditions: Caco-2
[3] = Genotoxicity in Salmonella typhimurium TA100 in presence or absence of rat S9 fraction by mini-Ames test; assay type: toxicity; conditions: salmonella enterica subsp. enterica serovar typhimurium
[4] = Genotoxicity in Salmonella typhimurium TA98 in presence or absence of rat S9 fraction by mini-Ames test; assay type: toxicity; conditions: salmonella enterica subsp. enterica serovar typhimurium
[5] = test system: RKO; test: Antiproliferative activity against APC wild-type human RKO cells at 10 uM measured after 5 days by MTS assay; assay type: functional, cell-based
[6] = molecular target: T1, Protein mono-ADP-ribosyltransferase PARP3 (Homo sapiens, UniProt Q9Y6F1); test: Inhibition of ARTD3 (unknown origin) measured after 4 hrs in presence of NAD+ by fluorescence assay
T1 sequence (Q9Y6F1 whole entry): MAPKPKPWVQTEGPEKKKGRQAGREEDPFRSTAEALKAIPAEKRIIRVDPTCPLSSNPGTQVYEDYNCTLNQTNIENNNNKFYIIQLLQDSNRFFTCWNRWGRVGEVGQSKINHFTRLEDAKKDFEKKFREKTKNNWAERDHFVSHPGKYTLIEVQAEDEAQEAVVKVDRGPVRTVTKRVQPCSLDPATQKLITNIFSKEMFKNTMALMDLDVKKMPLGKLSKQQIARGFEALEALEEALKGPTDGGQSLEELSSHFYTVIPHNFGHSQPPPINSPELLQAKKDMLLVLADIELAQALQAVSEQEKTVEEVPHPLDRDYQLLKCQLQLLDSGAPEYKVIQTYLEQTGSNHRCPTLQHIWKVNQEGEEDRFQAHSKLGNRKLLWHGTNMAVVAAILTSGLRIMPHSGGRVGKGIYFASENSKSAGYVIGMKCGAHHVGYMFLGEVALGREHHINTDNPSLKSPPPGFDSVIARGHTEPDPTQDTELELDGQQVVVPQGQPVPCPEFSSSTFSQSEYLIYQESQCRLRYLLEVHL

[7] = molecular target: Poly [ADP-ribose] polymerase 2 (Homo sapiens, UniProt Q9UGN5); test: Inhibition of ARTD2 (unknown origin) measured after 30 mins in presence of NAD+ by fluorescence assay
Chain of Poly [ADP-ribose] polymerase 2 (Q9UGN5 whole entry): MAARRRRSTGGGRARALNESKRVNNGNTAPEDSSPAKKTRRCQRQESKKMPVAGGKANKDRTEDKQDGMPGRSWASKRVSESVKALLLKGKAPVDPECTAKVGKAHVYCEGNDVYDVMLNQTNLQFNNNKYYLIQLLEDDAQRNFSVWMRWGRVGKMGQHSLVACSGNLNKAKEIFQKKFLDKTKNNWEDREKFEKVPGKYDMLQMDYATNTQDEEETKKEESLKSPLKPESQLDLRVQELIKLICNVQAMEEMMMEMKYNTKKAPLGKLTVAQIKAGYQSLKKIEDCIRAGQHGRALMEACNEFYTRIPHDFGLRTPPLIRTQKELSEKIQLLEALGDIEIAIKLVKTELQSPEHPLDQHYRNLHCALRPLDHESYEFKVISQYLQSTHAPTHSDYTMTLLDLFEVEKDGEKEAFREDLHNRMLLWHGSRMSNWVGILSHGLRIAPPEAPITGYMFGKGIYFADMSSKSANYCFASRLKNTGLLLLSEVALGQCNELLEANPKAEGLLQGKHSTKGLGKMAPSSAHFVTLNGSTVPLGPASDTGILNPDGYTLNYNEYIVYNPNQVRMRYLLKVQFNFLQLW

[8] = molecular target: Protein mono-ADP-ribosyltransferase PARP4 (Homo sapiens, UniProt Q9UKK3)
Chain of Protein mono-ADP-ribosyltransferase PARP4 (Q9UKK3 whole entry): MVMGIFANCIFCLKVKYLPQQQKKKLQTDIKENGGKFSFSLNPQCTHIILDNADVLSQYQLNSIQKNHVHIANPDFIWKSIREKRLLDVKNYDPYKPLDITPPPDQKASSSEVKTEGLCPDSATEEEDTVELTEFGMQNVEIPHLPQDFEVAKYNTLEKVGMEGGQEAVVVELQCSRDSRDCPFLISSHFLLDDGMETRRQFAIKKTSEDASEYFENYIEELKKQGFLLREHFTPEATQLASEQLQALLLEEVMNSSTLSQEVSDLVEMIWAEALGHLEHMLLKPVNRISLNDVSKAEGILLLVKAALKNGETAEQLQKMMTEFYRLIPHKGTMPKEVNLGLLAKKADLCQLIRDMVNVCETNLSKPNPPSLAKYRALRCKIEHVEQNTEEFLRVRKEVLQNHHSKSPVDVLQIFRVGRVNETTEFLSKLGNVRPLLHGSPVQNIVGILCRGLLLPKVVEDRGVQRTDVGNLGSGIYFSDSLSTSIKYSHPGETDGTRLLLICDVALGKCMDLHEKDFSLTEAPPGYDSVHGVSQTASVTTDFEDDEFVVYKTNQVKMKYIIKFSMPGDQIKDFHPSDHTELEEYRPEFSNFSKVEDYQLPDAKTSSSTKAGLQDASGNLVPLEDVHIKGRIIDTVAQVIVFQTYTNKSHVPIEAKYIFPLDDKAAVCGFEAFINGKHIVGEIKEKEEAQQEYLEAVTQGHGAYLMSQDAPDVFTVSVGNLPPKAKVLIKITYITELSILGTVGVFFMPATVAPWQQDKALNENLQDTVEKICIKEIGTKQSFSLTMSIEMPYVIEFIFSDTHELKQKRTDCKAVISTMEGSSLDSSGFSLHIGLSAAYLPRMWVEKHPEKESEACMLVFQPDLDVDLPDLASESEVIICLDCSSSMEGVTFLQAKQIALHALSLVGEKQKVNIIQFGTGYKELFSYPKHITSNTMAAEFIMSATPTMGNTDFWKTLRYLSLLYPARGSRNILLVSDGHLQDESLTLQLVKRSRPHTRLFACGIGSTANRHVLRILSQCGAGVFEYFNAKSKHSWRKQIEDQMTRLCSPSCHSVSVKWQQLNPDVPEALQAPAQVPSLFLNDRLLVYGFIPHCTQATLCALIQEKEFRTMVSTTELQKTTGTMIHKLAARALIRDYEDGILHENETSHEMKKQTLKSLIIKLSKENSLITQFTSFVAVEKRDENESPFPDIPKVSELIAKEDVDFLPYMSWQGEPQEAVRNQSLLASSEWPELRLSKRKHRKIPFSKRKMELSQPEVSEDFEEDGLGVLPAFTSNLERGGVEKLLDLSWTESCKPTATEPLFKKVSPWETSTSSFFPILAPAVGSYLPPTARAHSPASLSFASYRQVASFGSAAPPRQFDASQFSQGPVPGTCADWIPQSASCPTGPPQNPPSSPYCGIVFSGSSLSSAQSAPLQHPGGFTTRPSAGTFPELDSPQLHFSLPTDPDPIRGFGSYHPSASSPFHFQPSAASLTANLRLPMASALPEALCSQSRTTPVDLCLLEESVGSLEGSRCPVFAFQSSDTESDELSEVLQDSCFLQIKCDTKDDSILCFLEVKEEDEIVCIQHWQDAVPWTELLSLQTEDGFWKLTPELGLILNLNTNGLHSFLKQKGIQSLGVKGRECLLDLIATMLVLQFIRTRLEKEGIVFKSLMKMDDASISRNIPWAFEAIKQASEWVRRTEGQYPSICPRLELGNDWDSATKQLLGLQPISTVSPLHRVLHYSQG

[9] = molecular target: Poly [ADP-ribose] polymerase 1 (Homo sapiens, UniProt P09874); test: Inhibition of ARTD1 (unknown origin) measured after 30 mins in presence of NAD+ by fluorescence assay
Chain of Poly [ADP-ribose] polymerase 1 (P09874 whole entry): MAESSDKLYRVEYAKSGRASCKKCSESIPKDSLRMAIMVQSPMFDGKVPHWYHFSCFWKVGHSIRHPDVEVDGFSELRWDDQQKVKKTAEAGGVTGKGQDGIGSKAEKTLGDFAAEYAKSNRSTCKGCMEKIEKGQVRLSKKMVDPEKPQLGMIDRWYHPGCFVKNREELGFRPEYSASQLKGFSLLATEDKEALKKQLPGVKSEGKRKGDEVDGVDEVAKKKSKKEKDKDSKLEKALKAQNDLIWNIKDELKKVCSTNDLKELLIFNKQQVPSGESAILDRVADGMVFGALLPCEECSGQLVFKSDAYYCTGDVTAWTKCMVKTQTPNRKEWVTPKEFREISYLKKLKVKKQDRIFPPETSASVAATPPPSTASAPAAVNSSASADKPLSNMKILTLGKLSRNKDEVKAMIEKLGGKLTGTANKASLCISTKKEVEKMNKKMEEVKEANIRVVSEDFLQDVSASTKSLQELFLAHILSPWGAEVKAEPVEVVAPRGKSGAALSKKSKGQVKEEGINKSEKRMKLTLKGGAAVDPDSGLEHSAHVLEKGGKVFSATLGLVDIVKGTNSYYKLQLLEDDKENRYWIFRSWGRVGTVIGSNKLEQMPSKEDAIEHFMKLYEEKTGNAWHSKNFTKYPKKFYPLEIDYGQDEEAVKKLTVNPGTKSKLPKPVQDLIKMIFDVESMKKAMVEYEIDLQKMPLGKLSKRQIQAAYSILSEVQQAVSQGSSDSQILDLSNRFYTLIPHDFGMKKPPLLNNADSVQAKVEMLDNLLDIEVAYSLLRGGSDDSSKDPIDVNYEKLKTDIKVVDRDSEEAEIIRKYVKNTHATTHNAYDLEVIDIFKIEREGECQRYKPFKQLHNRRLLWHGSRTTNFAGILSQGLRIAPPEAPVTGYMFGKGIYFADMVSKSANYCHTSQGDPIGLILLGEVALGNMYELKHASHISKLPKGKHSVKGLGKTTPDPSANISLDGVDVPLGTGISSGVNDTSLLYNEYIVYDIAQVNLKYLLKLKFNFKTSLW

Row | Structure (SMILES) | CL/F [1] [mL/min/kg] | Papp A→B at 2 h, 10 µM [2] [×10⁻⁶ cm/s] | IC50 [6] [µM] | other results
1 | O=C(N[C@H]1C[C@H](c2nnc(-c3ccncn3)n2-c2ccccc2Cl)C1)c1ccnc2cccnc12 | – | 3.1 | – | –
2 | CCOc1ccc(-c2nnc([C@H]3C[C@H](NC(=O)c4ccccn4)C3)n2-c2ccccc2F)nc1 | 34.8 | 39.5 to 40 | > 10 | Activity [3]: Non-Toxic; Activity [4]: Non-Toxic; Activity [5]: Active
3 | N#Cc1ccc2c(c1)[nH]c(=O)n2[C@H]1C[C@H](c2nnc(-c3ccncn3)n2-c2ccccc2Cl)C1 | – | – | > 10 | IC50 [7]: > 10 µM; IC50 [8]: > 10 µM; IC50 [9]: > 10 µM

The next lines start with results.

Row | CL/F [1] [mL/min/kg] | Structure (SMILES) | Papp A→B at 2 h, 10 µM [2] [×10⁻⁶ cm/s] | IC50 [6] [µM] | other results
4 | 28.2 | CS(=O)(=O)c1ccc(-c2nnc([C@H]3C[C@H](NC(=O)c4cccc5cccnc45)C3)n2-c2ccccc2F)nc1 | – | – | –
5 | 16.5 | O=C(N[C@H]1C[C@H](c2nnc(-c3ccccn3)n2-c2ccccc2F)C1)c1ccnc2cc(F)cnc12 | – | – | –
